In patent publication US8106044B2, “8-{4-[3-(5-fluoro-1H-indol-3-yl)-propyl]-piperazin-1-yl}-2-methyl-4H-benzo[1,4]oxazin-3-one mesylate with high affinity for the dopamine D2 receptor and the serotonin reuptake site” (Solvay Pharmaceuticals B.V., priority 2001, dated 2012):
Structures can show the parent of a compound that is named as a salt.

Legend:
[1] = solubility in water; format: physicochemical; conditions: in comparison with the free base
[2] = bio-availability; conditions: in vivo

CC1Oc2c(cccc2N2CCN(CCCc3c[nH]c4ccc(F)cc34)CC2)NC1=O (centres unmarked) [mesylate, 8-{4-[3-(5-fluoro-1H-indol-3-yl)-propyl]-piperazin-1-yl}-2-methyl-4H-benzo[1,4]oxazin-3-one mesylate]
solubility in water [1]: much better soluable in water than the free base | bio-availability [2]: good
